Measurements as given in US20120142580A1, “OPIOID RECEPTORS STIMULATING COMPOUNDS (THYMOQUINONE, NIGELLA SATIVA) AND FOOD ALLERGY” (NESTEC S.A., priority 2009, published 2012).

Experiments:
OVA-sensitized mice = assay: Murine model of OVA-induced allergic diarrhea: diarrhea scores; format: in vivo, Balb/c mice
Text: Male Balb/c mice were sensitized by intraperitoneal injection of ovalbumin (OVA) together with aluminium potassium sulphate.
(§1) Briefly, following sensitization (2 intraperitoneal injections of OVA and aluminium potassium sulphate at an interval of 14 days) adult male Balb/c mice were orally challenged with OVA for 6 times (days 28, 30, 33, 35, 37, 40) resulting in transient clinical symptoms (diarrhea) and changes of immune parameters (plasma concentration of total IgE, OVA specific IgE, mouse mast cell protease 1 (MMCP-1) as well as Th2 type cytokine production of ex vivo OVA re-stimulated mesenteric lymphocytes (MLN)). Substances, to be tested, were administered either by subcutaneous injection (thymoquinone and naloxone methiodide according to the literature) or by gavage (Nigella sativa extract).

[1] = system: mouse mast cell protease 1 (MMCP-1); assay: Murine model of OVA-induced allergic diarrhea: plasma MMCP-1; format: in vivo, Balb/c mice; settings: thymoquinone study; 4th challenge; FIG. 2
Text: as §1
At large the MMCP-1 concentration in plasma correlates with the number of mast cells in the tissue which are known to be key players of diarrhea development in this mouse model (Brandt, E. B., et al., 2003, J. Clin. Invest 112, 1666-1677).

μ-hOR = μ-hOR (Homo sapiens, UniProt P35372); assay: Ligand displacement from μ-opioid receptor; format: binding; settings: 100 μM
κ-hOR = κ-hOR (Homo sapiens, UniProt P41145); assay: Ligand displacement from κ-opioid receptor; format: binding; settings: 100 μM
δ-hOR = δ-hOR (Homo sapiens, UniProt P41143); assay: Ligand displacement from δ-opioid receptor; format: binding; settings: 100 μM
Sequence of δ-hOR (P41143 whole entry): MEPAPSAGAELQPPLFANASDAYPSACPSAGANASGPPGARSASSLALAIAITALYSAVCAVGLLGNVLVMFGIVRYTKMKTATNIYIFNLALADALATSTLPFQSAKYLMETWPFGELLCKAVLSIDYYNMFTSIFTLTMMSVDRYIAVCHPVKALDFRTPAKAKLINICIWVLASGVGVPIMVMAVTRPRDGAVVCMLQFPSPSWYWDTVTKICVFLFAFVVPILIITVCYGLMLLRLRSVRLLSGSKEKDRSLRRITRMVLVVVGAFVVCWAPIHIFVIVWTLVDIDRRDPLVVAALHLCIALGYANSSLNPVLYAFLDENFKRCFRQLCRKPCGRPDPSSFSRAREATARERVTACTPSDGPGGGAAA

Sequence of κ-hOR (P41145 whole entry): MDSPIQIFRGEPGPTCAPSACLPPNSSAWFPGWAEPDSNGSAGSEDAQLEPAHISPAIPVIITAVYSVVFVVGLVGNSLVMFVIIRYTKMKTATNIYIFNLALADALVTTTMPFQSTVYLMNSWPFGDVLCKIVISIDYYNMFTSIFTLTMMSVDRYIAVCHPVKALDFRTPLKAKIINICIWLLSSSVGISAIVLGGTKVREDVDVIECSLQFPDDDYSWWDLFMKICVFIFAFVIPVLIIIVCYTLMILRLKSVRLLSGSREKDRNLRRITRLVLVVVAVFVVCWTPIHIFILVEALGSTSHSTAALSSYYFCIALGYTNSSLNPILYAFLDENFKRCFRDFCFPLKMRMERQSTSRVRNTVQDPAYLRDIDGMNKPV
Sequence of μ-hOR (P35372 whole entry): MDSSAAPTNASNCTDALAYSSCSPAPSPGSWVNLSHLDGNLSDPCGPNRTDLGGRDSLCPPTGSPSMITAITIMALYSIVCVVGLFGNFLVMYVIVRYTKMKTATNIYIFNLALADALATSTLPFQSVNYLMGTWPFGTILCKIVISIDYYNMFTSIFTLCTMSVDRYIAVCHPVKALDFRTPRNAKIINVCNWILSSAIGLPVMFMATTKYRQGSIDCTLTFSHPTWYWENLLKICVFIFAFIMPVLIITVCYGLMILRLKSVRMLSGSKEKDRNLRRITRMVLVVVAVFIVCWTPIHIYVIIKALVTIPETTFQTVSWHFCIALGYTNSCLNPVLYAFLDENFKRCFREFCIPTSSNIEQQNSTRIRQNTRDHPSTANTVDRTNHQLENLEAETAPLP

| Compound | diarrhea score (Median ±RobustSD) (OVA-sensitized mice; 3rd challenge, FIG. 3, OVA control 1±1.2) | diarrhea score (Median ±RobustSD) (OVA-sensitized mice; 4th challenge, FIG. 3, OVA control 2±3.6) | diarrhea score (Median ±RobustSD) (OVA-sensitized mice; 5th challenge, FIG. 3, OVA control 4±0) | diarrhea score (Median ±RobustSD) (OVA-sensitized mice; 6th challenge, FIG. 3, OVA control 4.5±1.2) | diarrhea score (Median ±RobustSD) (OVA-sensitized mice; OVA-challenged mice treated with thymoquinone (subcutaneous), after 6th challenge, FIG. 1, OVA control 5±0) | clinical symptoms compared to non-treated mice (OVA-sensitized mice; thymoquinone 4 days prior to sensitization and during challenge period, after 6th challenge) | plasma MMCP-1 compared to non-treated OVA challenged controls [1] | μ-hOR % ligand displacement (μ-hOR) | κ-hOR % ligand displacement (κ-hOR) | δ-hOR % ligand displacement (δ-hOR) |
| --- | --- | --- | --- | --- | --- | --- | --- | --- | --- | --- |
| C=CC[N+]1(C)CC[C@]23c4c5ccc(O)c4O[C@H]2C(=O)CC[C@@]3(O)[C@H]1C5.[I-] (stereo partly shown) [Naloxone, naloxone methiodide] | 2±1.2 | 3.5±1.2 | 4±0 | 5±0 | – | – | – | – | – | – |
| CC1=CC(=O)C(C(C)C)=CC1=O [Thymoquinone, 2-Isopropyl-5-methyl-1,4-benzoquinone] | – | – | – | – | 3±1.79 | significantly improve | significantly lower | 45% | 37% | 48% |
